Experimental data taken from ChEMBL document CHEMBL1201862, “PubChem BioAssay data set” (2004).
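Grown in 96-well plates, cells were treated for 48 hours with each compound at five concentrations. Insufficient inhibition: endpoint recorded as highest concentration tested. At the GI50, growth is halved.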 Calls of active or inactive are those of the source. Cut-off read from the data, not from the text of the source: active = GI50 up to about 1.1 µM and inactive = higher.

Columns and labels:
Assay in all cases: NCI anticancer screen, dose series, 48 h
[1] = system: CAKI-1
[2] = system: HOP-62
[3] = system: K562
[4] = system: SK-MEL-28
[5] = system: NCI-H460
[6] = system: HCT-15
[7] = system: OVCAR-4
[8] = system: MDA-MB-231
[9] = system: MDA-N
[10] = system: SR
[11] = system: Hs-578T
[12] = system: RXF 393
[13] = system: NCI-H226
[14] = system: OVCAR-5
[15] = system: SNB-19
[16] = system: A549
[17] = system: OVCAR-3
[18] = system: T47D
[19] = system: KM12
[20] = system: SNB-75
[21] = system: IGROV-1
[22] = system: MCF7
[23] = system: MDA-MB-435
[24] = system: DU-145
[25] = system: COLO 205
[26] = system: NCI-H522
[27] = system: EKVX
[28] = system: NCI/ADR-RES
[29] = system: LOX IMVI
[30] = system: UACC-257
[31] = system: OVCAR-8
[32] = system: MOLT-4
[33] = system: Malme-3M
[34] = system: CCRF-CEM
[35] = system: HOP-92
[36] = system: SW-620
[37] = system: SN12C
[38] = system: HCT-116
[39] = system: NCI-H23
[40] = system: U-251
[41] = system: HT-29
[42] = system: HL-60
[43] = system: A498
[44] = system: ACHN
[45] = system: SK-OV-3
[46] = system: 786-0
[47] = system: SF-268
[48] = system: SF-539
[49] = system: M14
[50] = system: UACC-62
[51] = system: HCC 2998
[52] = system: TK-10
[53] = system: SF-295
[54] = system: RPMI-8226
[55] = system: PC-3
[56] = system: SK-MEL-5

## CCOC(=O)c1c(SC(=O)C(C)(C)Oc2ccc(Cl)cc2)n(-c2ccccc2)c(=S)n(-c2ccccc2)c1=O
[1]
  GI50: > 100 µM (inactive)
[2]
  GI50: 26 µM (inactive)
[3]
  GI50: 30.8 µM (inactive)
[4]
  GI50: 62.5 µM (inactive)
[5]
  GI50: 22.1 µM (inactive)
[6]
  GI50: 60.4 µM
[7]
  GI50: 34.4 µM (inactive)
[8]
  GI50: 26.6 µM (inactive)
[9]
  GI50: 48.8 µM (inactive)
[10]
  GI50: 23.9 µM (inactive)
[11]
  GI50: 26.9 µM (inactive)
[12]
  GI50: 25.1 µM (inactive)
[13]
  GI50: 40 µM (inactive)
[14]
  GI50: 67 µM (inactive)
[15]
  GI50: 31.6 µM (inactive)
[16]
  GI50: 26.9 µM (inactive)
[17]
  GI50: 32.1 µM (inactive)
[18]
  GI50: 84.5 µM (inactive)
[19]
  GI50: 24.8 µM (inactive)
[20]
  GI50: 51.4 µM (inactive)
[21]
  GI50: 20.1 µM (inactive)
[22]
  GI50: 21.5 µM (inactive)
[23]
  GI50: 33 µM (inactive)
[24]
  GI50: 45.2 µM (inactive)
[25]
  GI50: 20.7 µM (inactive)
[26]
  GI50: 39.8 µM (inactive)
[27]
  GI50: 52.8 µM (inactive)
[28]
  GI50: 58.6 µM (inactive)
[29]
  GI50: 31.8 µM (inactive)
[30]
  GI50: > 100 µM (inactive)
[31]
  GI50: 19.6 µM (inactive)
[32]
  GI50: 24.9 µM (inactive)
[33]
  GI50: 23 µM (inactive)
[34]
  GI50: 30.1 µM (inactive)
[35]
  GI50: 35.6 µM (inactive)
[36]
  GI50: 22.6 µM (inactive)
[37]
  GI50: 25.2 µM (inactive)
[38]
  GI50: 22.4 µM (inactive)
[39]
  GI50: 61.7 µM (inactive)
[40]
  GI50: 19.6 µM (inactive)
[41]
  GI50: 27.4 µM (inactive)
[42]
  GI50: 19.5 µM (inactive)
[43]
  GI50: 52.7 µM (inactive)
[44]
  GI50: 23.3 µM (inactive)
[45]
  GI50: 45.6 µM (inactive)
[46]
  GI50: 27.6 µM (inactive)
[47]
  GI50: 20.2 µM (inactive)
[48]
  GI50: 22.9 µM (inactive)
[49]
  GI50: 30.3 µM (inactive)
[50]
  GI50: 67.8 µM (inactive)
[51]
  GI50: > 100 µM (inactive)
[52]
  GI50: 89.5 µM (inactive)
[53]
  GI50: 59.2 µM (inactive)

## CC[C@@]1(O)C(=O)OCc2c1cc1n(c2=O)Cc2c-1nc1ccccc1c2/C=N/c1ccccc1N[C@@H]1c2cc3c(cc2[C@@H](c2cc(OC)c(O)c(OC)c2)[C@H]2C(=O)OC[C@@H]21)OCO3
[1]
  GI50: 0.0225 µM (active)
[2]
  GI50: < 0.0189 µM (active)
[5]
  GI50: < 0.01 µM (active)
[13]
  GI50: 0.0702 µM (active)
[54]
  GI50: 0.27 µM (active)
[16]
  GI50: 0.0411 µM (active)
[55]
  GI50: 0.284 µM (active)
[18]
  GI50: 0.0236 µM (active)
[20]
  GI50: 0.051 µM (active)
[22]
  GI50: < 0.0115 µM (active)
[29]
  GI50: 0.0138 µM (active)
[30]
  GI50: 0.412 µM (active)
[32]
  GI50: < 0.01 µM (active)
[33]
  GI50: 0.394 µM (active)
[35]
  GI50: 0.224 µM (active)
[36]
  GI50: 0.132 µM (active)
[38]
  GI50: 0.0469 µM (active)
[40]
  GI50: 0.296 µM (active)
[44]
  GI50: < 0.0145 µM (active)
[46]
  GI50: 0.0213 µM (active)
[47]
  GI50: 0.0285 µM (active)
[49]
  GI50: 0.04 µM (active)
[50]
  GI50: 0.0264 µM (active)
[56]
  GI50: 0.0955 µM (active)
